Measurements from ChEMBL document CHEMBL2074405, “Transport of monoamine transmitters by the organic cation transporter type 2, OCT2” (J Biol Chem, 1998).
“And” between values parts separate entries of the source, which are not always exact repeats. Equal values may be shown once.

What was measured:
[1] = biological target: T1, Solute carrier family 22 member 2 (Rattus norvegicus, UniProt Q9R0W2); assay: TP_TRANSPORTER: inhibition of Noradrenaline uptake in OCT2-expressing HEK293 cells; assay type: functional, cell-based
T1 sequence (Q9R0W2 whole entry): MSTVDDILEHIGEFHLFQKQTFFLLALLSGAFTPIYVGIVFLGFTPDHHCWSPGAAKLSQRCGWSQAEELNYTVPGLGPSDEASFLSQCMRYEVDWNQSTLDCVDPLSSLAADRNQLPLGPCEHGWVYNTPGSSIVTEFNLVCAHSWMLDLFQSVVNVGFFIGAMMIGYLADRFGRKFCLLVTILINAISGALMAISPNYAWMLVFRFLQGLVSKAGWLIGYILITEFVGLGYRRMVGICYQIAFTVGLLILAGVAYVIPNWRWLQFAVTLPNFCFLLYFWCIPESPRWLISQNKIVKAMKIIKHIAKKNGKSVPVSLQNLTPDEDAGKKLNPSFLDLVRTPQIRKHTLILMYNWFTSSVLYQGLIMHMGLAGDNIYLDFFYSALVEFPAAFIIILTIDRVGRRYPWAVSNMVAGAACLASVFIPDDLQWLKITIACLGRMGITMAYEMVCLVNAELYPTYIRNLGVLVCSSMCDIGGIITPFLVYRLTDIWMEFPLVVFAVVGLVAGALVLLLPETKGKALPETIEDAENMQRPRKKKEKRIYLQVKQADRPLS

[2] = biological target: T1, Solute carrier family 22 member 2; assay: TP_TRANSPORTER: inhibition of Dopamine uptake in OCT2-expressing HEK293 cells; assay type: functional, cell-based
[3] = biological target: T1, Solute carrier family 22 member 2; assay: TP_TRANSPORTER: inhibition of Adrenaline uptake in OCT2-expressing HEK293 cells; assay type: functional, cell-based
[4] = biological target: T1, Solute carrier family 22 member 2; assay: TP_TRANSPORTER: inhibition of Serotonin uptake in OCT2-expressing HEK293 cells; assay type: functional, cell-based
[5] = biological target: T1, Solute carrier family 22 member 2; assay: TP_TRANSPORTER: inhibition of Dopamine uptake (Dopamine: 0.1 uM, O-Methylisoprenaline: 30 uM) in OCT2-expressing HEK293 cells; assay type: functional, cell-based; conditions: human, hek293, 30 µM
[6] = biological target: T1, Solute carrier family 22 member 2; assay: TP_TRANSPORTER: inhibition of Dopamine uptake (Dopamine: 0.1 uM, Cocaine: 1 uM) in OCT2-expressing HEK293 cells; assay type: functional, cell-based; conditions: human, hek293, 1 µM
[7] = substrate: NC[C@H](O)c1ccc(O)c(O)c1; assay: cells, lysate or membranes named
Description: (§1) TP_TRANSPORTER: uptake in OCT2-expressing HEK293 cells

[8] = substrate: CNC[C@H](O)c1ccc(O)c(O)c1; assay: cells, lysate or membranes named
[9] = substrate: NCCc1c[nH]c2ccc(O)cc12; assay: cells, lysate or membranes named
Description: as §1

[10] = substrate: NCCc1ccc(O)c(O)c1; assay: cells, lysate or membranes named

Question: How did the Ki [1] turn out when CC(C)N1/C(=C\c2cc[n+](C(C)C)c3ccccc23)C=Cc2ccccc21 [DISPROCYNIUM24] was run?
Answer: Its Ki is 13 nM.

Question: What about the Ki [2] of the same molecule?
Answer: The Ki was 5.1 nM.

Question: And the Ki [3]?
Answer: The Ki was 12 nM.

Question: And the Ki [4]?
Answer: The Ki was 13 nM.

Question: With C[C@]12C[C@H](O)[C@H]3[C@@H](CCC4=CC(=O)CC[C@@]43C)[C@@H]1CC[C@@H]2C(=O)CO [CORTICOSTERONE] as the molecule, how does the Ki [1] read?
Answer: The Ki was 460 nM.

Question: And the Ki [2]?
Answer: Its Ki is 390 nM.

Question: And the Ki [3]?
Answer: The Ki was 420 nM.

Question: And the Ki [4]?
Answer: The Ki was 605 nM.

Question: Which Activity [5] does the source give for COc1cc(C(O)CNC(C)C)ccc1O (centres undefined) [METIPRENALINE] here?
Answer: Its Activity is “is not an inhibitor [-]”.

Question: For COC(=O)[C@H]1[C@@H](OC(=O)c2ccccc2)C[C@@H]2CC[C@H]1N2C [COCAINE], which Activity [6] is on record?
Answer: The Activity was “is not an inhibitor [-]”.

B1: Solute carrier family 22 member 2 (Rattus norvegicus) (protein)
chain: T1 sequence (Q9R0W2 whole entry)
Question: With B1 as the molecule, how does the Km [7] read?
Answer: Its Km is 11 mM and 4.4 mM.

Question: And the Km [8]?
Answer: The Km was 1.9 mM.

Question: And the Km [9]?
Answer: Its Km is 3.6 mM.

Question: And the Km [10]?
Answer: Its Km is 2.1 mM.
